{"source": "patent US20200009110A1", "about": "“METHOD FOR TREATING AN ALLERGIC DISEASE” (Arjil Biotech Holding Company Limited, priority 2018, published 2020)", "key": {"[1]": {"test_system": "TNF-α secretion in DCs from C57BL/6 mice", "assay": "ELISA assay for TNF-α secretion by LPS-stimulated dendritic cells", "format": "cell-based", "settings": "AR001DS1 12.5, 25, 50 and 100 μg/ml", "experimental": "DCs were isolated from C57BL/6 mice and incubated at 37° C. for 7 days. Then DCs were plated in a 24-well plate and cultured at 37° C. overnight in a 5% CO2 atmosphere. DCs were treated with AR001DS1 (12.5, 25, 50 and 100 μg/ml) for 1 h, and then stimulated with lipopolysaccharide (LPS) for 4 h. The supernatants were collected and TNF-α secretion in culture supernatants was quantitated using an ELISA assay."}, "[2]": {"test_system": "BALB/c mice with Con A-induced hepatitis", "assay": "Con A-induced acute (autoimmune) hepatitis animal experiment", "format": "in vivo", "from_the_text": "Concanavalin A (Con A) and dexamethasone (Dex) were purchased from Sigma-Aldrich (USA). ProcartaPlex™ Immunoassays kit was purchased from Corning Inc. (USA). GOP and GPT Fuji Dri-Chem slides were purchased from Winning Medical Inc. (Taiwan).\nMale BALB/c mice (7-9 weeks old) were purchased from BioLASCO Taiwan Co., Ltd or National Laboratory Animal Center (NLAC, Taiwan). Animals were housed five per cage with food and water provided ad libitum throughout the experiments. Room temperature was maintained at 23±2° C. with an alternating 12 h light-dark cycle. Animals were acclimatized for one week to minimize the effect of stress before the experiments. All experimental protocols involving animals and their care were approved by the Institutional Animal Care and Use Committee (IACUC) in ITRI (ITRI-IACUC-2018-041 and ITRI-IACUC-2018-050; accredited by AAALAC) and were carried out according to the regulations of the Council of Agriculture, Taiwan.\nCon A was dissolved in pyrogen-free saline at a concentration of 3 mg/ml and intravenously injected at a dose of 15 mg/kg or 20 mg/kg of body weight to induce hepatitis. AR100DS1 and Dex were orally administered 30 min before and then 4 h and 8 h after Con A treatment. Blood and liver tissues were collected 24 h after Con A treatment. Serum were stored at −80° C. until analysis.\nTo assess the level of hepatocellular injury after Con A treatment, serum GPT and GOT levels were measured by Fuji Dri-Chem slides (Fuji, Japan).\nThe serum of the same group were pooled for cytokine assay. Cytokine levels were measured by ProcartaPlex™ Immunoassays kit according to manufacturer's instructions.\nLiver tissues were fixed in 10% phosphate-buffered formaldehyde, embedded in paraffin, and stained with hematoxylin and eosin (H&E) in order to confirm tissue lesions. Tissue lesions were examined microscopically by a veterinary pathologist at BioLASCO Taiwan Co., Ltd. The criteria of severity grading system for all microscopic lesions were graded from 0 to 4 as follows: 0=none; 1=individual cell necrosis; 2=≤30% lobular necrosis; 3=≤60% lobular necrosis; 4=22 60% lobular necrosis.\nData are presented as mean±SEM. In this study, Student's t-test was used to analyze the differences between drug-and vehicle-treated groups. The difference is regarded statistically significant when p value is less than 0.05.\nAutoimmune hepatitis (AIH) is a complex disease which is characterized by hepatocellular inflammation, necrosis, and a tendency to cirrhosis. The plant lectin concanavalin A (Con A)-induced acute hepatitis in BALB/c mice is a common animal model for AIH and we performed this model to evaluate the anti-hepatitis effects of AR001DS1. Dexamethasone (Dex), one of the steroids-based standard treatments of AIH, was used as a positive control."}, "[3]": {"test_system": "IL-1β expression in PMA-activated THP-1 cells", "assay": "PMA-induced IL-1β expression in THP-1 cells (Q-PCR, immunoblotting)", "format": "cell-based", "settings": "for IL-1β mRNA expression, treatment after activation: PMA for 24 h, followed by treatment for another 24 h; for IL-1β mRNA and protein expression, pretreatment: pretreated 0.5 h, followed by PMA induction for 48 h", "experimental": "Q-PCR analysis (left) and immunoblotting (right) for IL-1β mRNA and protein expression in THP-1 cells pretreated with AR001DS1 or AR001DS2 for 0.5 h, followed by PMA induction for 48 h.\nQ-PCR analysis for IL-1β mRNA expression in THP-1 cells stimulated with PMA for 24 h, followed by treatment with or without AR001DS1 or AR001DS2 for another 24 h.\nBecause AR100 was composed of AR001DS1 and AR001DS2, THP-1 cells were independently pre-treated with the two components, followed by PMA activation."}, "RBL-2H3 cells": {"test_system": "RBL-2H3 cells", "assay": "β-Hexosaminidase secretion assay (mast cell degranulation)", "format": "cell-based", "settings": "12.5, 25, 50 and 100 μg/ml, anti-DNP IgE-sensitized, DNP-BSA stimulated", "experimental": "RBL-2H3 cells were plated in a 24-well plate and then sensitized with anti-dinitrophenyl (DNP)-IgE overnight at 37° C. in a 5% CO2 atmosphere. After washing, the cells were treated with AR001DS1 (12.5, 25, 50 and 100 μg/ml) at 37° C. for 30 min, and then stimulated with DNP-bovine serum albumin (BSA) at 37° C. for 30 min to induce degranulation. The supernatant was transferred to a 96-well microplate and incubated for 2 h with equal volume of 5 mM 4-nitrophenyl N-acetyl-b-glucosaminide in 0.1M citrate buffer (pH 4.5). The reaction was terminated by adding […] of stop buffer (0.05 M sodium carbonate, pH 10), and OD at 405 nm was determined using an ELISA plate reader."}, "[4]": {"test_system": "animal model of gout arthritis", "assay": "Animal model of gout arthritis", "settings": "in vivo"}, "[5]": {"test_system": "PMA-induced cytokines in THP-1 cells", "assay": "Bio-plex human 27-plex cytokine assay in PMA treated THP-1 cells", "format": "cell-based", "settings": "10 μg/ml for 0.5 hr, then PMA 10 ng/ml for 24 hr", "from_the_text": "In addition to IL-1β, several cytokines participated in inflammatory responses. To identify cytokine networks affected by AR001DS1, we performed Bio-plex analysis to monitor the effect of AR001DS1 treatment on the expression of human 27 cytokines in PMA treated THP-1 cells."}}, "note": "Entries after “also recorded” stand apart in the source; their conditions may differ."}
{"smiles": "O=c1c(O)c(-c2ccc(O)c(O)c2)oc2cc(O)cc(O)c12", "note": "[quercetin, reference compound]", "values": [{"measurement": "secretion of TNF-α", "setting": "[1]", "value": "effectively reduced the secretion of TNF-α"}]}
{"smiles": "C[C@@H]1C[C@H]2[C@@H]3CCC4=CC(=O)C=C[C@]4(C)[C@@]3(F)[C@@H](O)C[C@]2(C)[C@@]1(O)C(=O)CO", "note": "[Dex, dexamethasone]", "values": [{"measurement": "serum GPT", "setting": "[2]; 15 mg/kg Con A, oral, Con A alone 1437±398", "value": "898±515", "unit": "U/L"}, {"measurement": "serum GOT", "setting": "[2]; 15 mg/kg Con A, oral, Con A alone 1450±433", "value": "809±339", "unit": "U/L"}, {"measurement": "liver necrosis histopathological score (0-4)", "setting": "[2]; 15 mg/kg Con A, Con A alone 2.2±0.2", "value": "1.6±0.6"}, {"measurement": "liver necrosis histopathological score (0-4)", "setting": "[2]; 20 mg/kg Con A", "value": "2.6±0.2"}, {"measurement": "serum GPT", "setting": "[2]; 20 mg/kg Con A, oral", "value": "1940±403", "unit": "U/L"}, {"measurement": "serum GOT", "setting": "[2]; 20 mg/kg Con A, oral, Con A alone 2249±549", "value": "1261±282", "unit": "U/L"}]}
{"smiles": "C=CC(OC(C)=O)c1ccc(OC(C)=O)cc1", "note": "(stereo not drawn) [AR001DS2, 1′-acetoxychavicol acetate]", "values": [{"measurement": "IL-1β mRNA expression, treatment after activation", "setting": "[3]", "value": "did not suppressed"}, {"measurement": "IL-1β mRNA and protein expression, pretreatment", "setting": "[3]", "value": "blocked the expression of IL-1β; also recorded: inhibits PMA-induced IL-1β expression"}]}
{"smiles": "C=C1C(=O)OC2/C=C(\\C)CC3C=C(CC/C=C(\\C)CCC12)C(=O)O3", "note": "(stereo not drawn) [AR001DS1, ovatodiolide]", "values": [{"measurement": "IL-1β mRNA expression, treatment after activation", "setting": "[3]", "value": "inhibits PMA-induced IL-1β expression"}, {"measurement": "IL-1β mRNA expression, treatment after activation", "setting": "[3]; listed as AR100DS1", "value": "attenuated the expression of IL-1β"}, {"measurement": "IL-1β mRNA and protein expression, pretreatment", "setting": "[3]", "value": "blocked the expression of IL-1β; also recorded: inhibits PMA-induced IL-1β expression"}, {"measurement": "liver necrosis histopathological score (0-4)", "setting": "[2]; 50 mg/kg oral, 15 mg/kg Con A, vehicle 1.4±0.2", "value": "0.2±0.2"}, {"measurement": "serum GPT", "setting": "[2]; 50 mg/kg oral, 15 mg/kg Con A, vehicle 368±107, p<0.05", "value": "109±25", "unit": "U/L"}, {"measurement": "serum GOT", "setting": "[2]; 50 mg/kg oral, 15 mg/kg Con A, vehicle 410±56", "value": "261±45", "unit": "U/L"}, {"measurement": "secretion of TNF-α", "setting": "[1]", "value": "better inhibitory effect on the secretion of TNF-α in LPS-stimulated DCs than quercetin; also recorded: suppress TNF-α secretion by dendritic cells (DCs) in a dose-dependent manner"}, {"measurement": "secretion of β-hexosaminidase (degranulation)", "setting": "RBL-2H3 cells", "value": "significantly inhibited; also recorded: suppress mast cell degranulation in a dose-dependent manner"}, {"measurement": "effect on gout arthritis", "setting": "[4]", "value": "therapeutic effects"}, {"measurement": "IL-1β expression (Bio-plex)", "setting": "[5]", "value": "attenuated its expression"}, {"measurement": "MIP-α and -β expression (Bio-plex)", "setting": "[5]", "value": "blocked their expressions"}, {"measurement": "induction of IL-8, TNF-α and RANTES (Bio-plex)", "setting": "[5]", "value": "inhibited"}]}
